According to patent publication US8362065B2, “Carbazole carboxamide compounds useful as kinase inhibitors” (Bristol-Myers Squibb Company, priority 2008, dated 2013):

Target: T1, human recombinant Btk (Homo sapiens, UniProt Q06187)
T1 construct: purchased Invitrogen Corporation
Test: Human Recombinant Btk Enzyme Assay
Format: biochemical
Details: human recombinant Btk 1 nM, ATP 20 μM, 60 min at room temperature; read-out: IC50 for Inhibition of Btk

T1 sequence (Q06187 whole entry): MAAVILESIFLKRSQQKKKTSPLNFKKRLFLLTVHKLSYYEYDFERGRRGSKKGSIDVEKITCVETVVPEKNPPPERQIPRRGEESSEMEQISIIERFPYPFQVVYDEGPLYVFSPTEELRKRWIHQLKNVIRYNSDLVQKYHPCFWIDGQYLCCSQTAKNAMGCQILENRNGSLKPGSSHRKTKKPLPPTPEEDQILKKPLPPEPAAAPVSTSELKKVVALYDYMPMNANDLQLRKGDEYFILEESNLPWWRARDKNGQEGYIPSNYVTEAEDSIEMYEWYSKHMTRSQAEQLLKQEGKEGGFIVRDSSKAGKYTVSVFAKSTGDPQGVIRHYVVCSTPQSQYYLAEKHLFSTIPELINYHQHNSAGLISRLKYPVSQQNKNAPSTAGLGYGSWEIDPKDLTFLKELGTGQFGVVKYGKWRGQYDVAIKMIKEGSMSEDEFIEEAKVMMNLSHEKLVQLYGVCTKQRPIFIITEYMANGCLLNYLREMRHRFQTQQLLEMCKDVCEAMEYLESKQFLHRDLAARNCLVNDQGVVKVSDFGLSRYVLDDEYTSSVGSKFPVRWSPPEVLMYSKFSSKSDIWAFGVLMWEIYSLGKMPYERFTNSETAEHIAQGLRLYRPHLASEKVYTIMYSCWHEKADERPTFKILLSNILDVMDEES

IC50 [nM] | Compound
2.2 | Cc1c(NC(=O)c2ccc(F)cc2)cccc1-c1ccc(C(N)=O)c2[nH]c3cc(C(O)CO)ccc3c12 (racemic) [Example 70-2]
2.3 | Cc1c(-c2ccc(C(N)=O)c3[nH]c4cc(C(O)CO)ccc4c23)cccc1N1Cc2ccccc2C1=O (racemic) [Example 70-3, 7-((RS)-1,2-dihydroxyethyl)-4-(2-methyl-3-(1-oxoisoindolin-2-yl)phenyl)-9H-carbazole-1-carboxamide]
1.6 | Cc1ccc2c(c1)C(=O)N(c1cccc(-c3ccc(C(N)=O)c4[nH]c5cc(C(O)CO)ccc5c34)c1C)C2 (racemic) [Example 70-5, 7-((RS)-1,2-dihydroxyethyl)-4-(2-methyl-3-(6-methyl-1-oxoisoindolin-2-yl)phenyl)-9H-carbazole-1-carboxamide]
0.8 | Cc1c(-c2ccc(C(N)=O)c3[nH]c4cc(C(O)CO)ccc4c23)cccc1N1Cc2ccc(F)cc2C1=O (racemic) [Example 70-6, 7-((RS)-1,2-dihydroxyethyl)-4-(3-(6-fluoro-1-oxoisoindolin-2-yl)-2-methylphenyl)-9H-carbazole-1-carboxamide]
4500 | Cc1c(-c2ccc(C(N)=O)c3[nH]c4cc(C(=O)N5CCN(C)CC5)ccc4c23)cccc1N(C(C)C)S(C)(=O)=O (single isomer, unassigned) [Example 10-2, 4-(3-(N-isopropylmethylsulfonamido)-2-methylphenyl)-7-(4-methylpiperazine-1-carbonyl)-9H-carbazole-1-carboxamide]
4900 | Cc1c(-c2ccc(C(N)=O)c3[nH]c4cc(C(=O)N5CCN(C)CC5)ccc4c23)cccc1N(C(C)C)S(C)(=O)=O (single isomer, unassigned) [Example 10-3, 4-(3-(N-isopropylmethylsulfonamido)-2-methylphenyl)-7-(4-methylpiperazine-1-carbonyl)-9H-carbazole-1-carboxamide]
490 | CN1CCN(C(=O)C2CCc3c([nH]c4c(C(N)=O)ccc(Br)c34)C2)CC1 (stereo not shown) [Example 1-3, 5-bromo-2-(4-methylpiperazine-1-carbonyl)-2,3,4,9-tetrahydro-1H-carbazole-8-carboxamide]
1300 | CN1CCN(C(=O)c2ccc3c(c2)[nH]c2c(C(N)=O)ccc(-c4nccc5ccccc45)c23)CC1 [Example 2-2, 4-(isoquinolin-1-yl)-7-(4-methylpiperazine-1-carbonyl)-9H-carbazole-1-carboxamide]
16 | CN1CCN(C(=O)c2ccc3c(c2)[nH]c2c(C(N)=O)ccc(-c4cc(F)ccc4F)c23)CC1 [Example 2-12, 4-(2,5-difluorophenyl)-7-(4-methylpiperazine-1-carbonyl)-9H-carbazole-1-carboxamide]
15 | CN1CCN(C(=O)c2ccc3c(c2)[nH]c2c(C(N)=O)ccc(-c4cc(Cl)ccc4F)c23)CC1 [Example 2-13, 4-(5-chloro-2-fluorophenyl)-7-(4-methylpiperazine-1-carbonyl)-9H-carbazole-1-carboxamide]
16 | NC(=O)c1ccc(-c2cc(C(=O)O)ccc2F)c2c1[nH]c1cc(C(=O)N3CCOCC3)ccc12 [Example 2-16, 3-(1-carbamoyl-7-(morpholine-4-carbonyl)-9H-carbazol-4-yl)-4-fluorobenzoic acid]
16 | CN1CCN(C(=O)c2ccc3[nH]c4c(C(N)=O)ccc(-c5ccccc5F)c4c3c2)CC1 [Example 2-18, 4-(2-fluorophenyl)-6-(4-methylpiperazine-1-carbonyl)-9H-carbazole-1-carboxamide]
800 | CCNC(=O)c1cc2c(-c3ccc(C(N)=O)c4[nH]c5cc(C(=O)N6CCN(C)CC6)ccc5c34)cccc2[nH]1 [Example 2-24, 4-(2-(ethylcarbamoyl)-1H-indol-4-yl)-7-(4-methylpiperazine-1-carbonyl)-9H-carbazole-1-carboxamide]
3100 | CN1CCN(C(=O)c2ccc3c(c2)[nH]c2c(C(N)=O)ccc(-c4cccc5[nH]c(C(=O)Nc6ccc(F)cc6)cc45)c23)CC1 [Example 2-25, 4-(2-(4-fluorophenylcarbamoyl)-1H-indol-4-yl)-7-(4-methylpiperazine-1-carbonyl)-9H-carbazole-1-carboxamide]
16 | CC(=O)Nc1ccc(F)c(-c2ccc(C(N)=O)c3[nH]c4cc(C(=O)N5CCN(C)CC5)ccc4c23)c1 [Example 2-35, 4-(5-acetamido-2-fluorophenyl)-7-(4-methylpiperazine-1-carbonyl)-9H-carbazole-1-carboxamide]
520 | CN1CCN(C(=O)c2ccc3c(c2)[nH]c2c(C(N)=O)ccc(-c4cc(NC(=O)c5ccc(F)cc5)ccn4)c23)CC1 [Example 2-43, 4-(4-(4-fluorobenzamido)pyridin-2-yl)-7-(4-methylpiperazine-1-carbonyl)-9H-carbazole-1-carboxamide]
17 | NC(=O)c1ccc(-c2ccccc2F)c2c1[nH]c1cc(C(=O)N3CCOCC3)ccc12 [Example 3-9, 4-(2-fluorophenyl)-7-(morpholine-4-carbonyl)-9H-carbazole-1-carboxamide]
2700 | CCOc1ccc2ccccc2c1-c1ccc(C(N)=O)c2[nH]c3cc(C(=O)N4CCN(C)CC4)ccc3c12 [Example 3-18]
1800 | CN1CCN(C(=O)c2ccc3c(c2)[nH]c2c(C(N)=O)ccc(-c4cccc5cccnc45)c23)CC1 [Example 3-19]
16 | CCOc1ccc(F)c(-c2ccc(C(N)=O)c3[nH]c4cc(C(=O)N5CCN(C)CC5)ccc4c23)c1 [Example 3-39]
16 | CN1CCN(C(=O)c2ccc3c(c2)[nH]c2c(C(N)=O)ccc(-c4ccccc4)c23)CC1 [Example 3-45]
390 | CN1CCN(C(=O)c2ccc3c(c2)[nH]c2c(C(N)=O)ccc(-c4cccc(-c5ccccc5)c4)c23)CC1 [Example 3-48]
690 | CN1CCN(C(=O)c2ccc3c(c2)[nH]c2c(C(N)=O)ccc(-c4cccc5c4oc4ccccc45)c23)CC1 [Example 3-49]
15 | CN1CCN(C(=O)c2ccc3c(c2)[nH]c2c(C(N)=O)ccc(-c4ccccc4Cl)c23)CC1 [Example 3-69]
920 | CN1CCN(C(=O)c2ccc3c(c2)[nH]c2c(C(N)=O)ccc(-c4cccc5[nH]c(C(=O)N6CCCC6)cc45)c23)CC1 [Example 3-75]
940 | CN1CCN(C(=O)c2ccc3c(c2)[nH]c2c(C(N)=O)ccc(-c4c[nH]c5cc(-c6ccc(F)cc6)ccc45)c23)CC1 [Example 3-83]
18 | Cc1c(-c2ccc(C(N)=O)c3[nH]c4c(c23)CCC(C(=O)NCCCN(C)C)C4)cccc1N1Cc2ccccc2C1=O (stereo not shown) [Example 3-101]
1600 | CC(C)(C)OC(=O)n1cc(-c2ccc(C(N)=O)c3[nH]c4c(c23)CCC(C(=O)NC2CCOCC2)C4)cn1 (stereo not shown) [Example 3-116]
18 | Cc1c(-c2ccc(C(N)=O)c3[nH]c4c(c23)CCC(C(=O)N2CCN(C)CC2)C4)cccc1N1Cc2ccccc2C1=O (stereo not shown) [Example 3-122]
2 | Cc1c(-c2ccc(C(N)=O)c3[nH]c4c(c23)CCC(C(=O)N(C)C2CCN(C)CC2)C4)cccc1N1Cc2ccc(C(F)(F)F)cc2C1=O (stereo not shown) [Example 3-130]

Compound | IC50 [nM]
7-(1,2-dihydroxyethyl)-4-(2-methyl-3-(6-methyl-1-oxoisoindolin-2-yl)phenyl)-9H-carbazole-1-carboxamide^[b] [Example 70-12] | 1.3
